Data reported in US20090304668A1, “LARVAL POLYPEPTIDES HAVING A NUCLEASE ACTIVITY” (The Secretary of State for Defence, priority 2006, published 2009).

How the values were obtained:
bacterial genomic DNA = test: Agarose gel electrophoresis of bacterial genomic DNA in presence of soybean trypsin inhibitor and EDTA; format: biochemical, E. coli; settings: 20 minutes 37° C.
Experimental: Samples containing bacterial genomic DNA, and ES or DNase in the absence and presence of EDTA and a soybean trypsin inhibitor were loaded onto an agarose gel to observe the effects of these inhibitors on DNase activity. A soybean trypsin inhibitor (Sigma) was washed 4 times with PBS and each time centrifuged into a pellet and the PBS removed as the supernatant. On the 5th washing, 500 μl of PBS were used to suspend the trypsin inhibitor and this was equally distributed between the samples to be treated. Samples of ES 162.3 μg/ml and PBS (control) were treated with the soybean trypsin inhibitor in order to remove any serine proteinases present. These samples were treated with STI 3 times in order to achieve maximal removal of serine proteinases, again following each treatment the solution was centrifuged and the ES/PBS removed as the supernatant. Following washing, these solutions were transferred to a fresh Eppendorf.
15.34 μl of 1.385 mg/ml bacterial genomic DNA was diluted to 0.1 mg/ml in 184.6 μl of either sterile PBS or 5 mM EDTA. 121.1 μg/ml DNase was also made up (10 μl of 1 mg/ml diluted in 72.6 μl of PBS.) In order to make up the samples, 50 μl of the appropriate one of these DNA solutions plus 3.125 μl of STI treated/untreated DNase/ES/PBS. […]

DNA methyl green [1] = test: Dose dependency curves (DNA methyl green, 96 well plate); format: biochemical; settings: for EC50: 37° C.
Experimental: In order to further characterise ES, dose dependency curves were created enabling the EC50 value to be determined. ES was diluted to a concentration of 13.40 μg/ml in PBS, following this 1 in 10 dilutions in PBS were then performed. DNase was diluted to a concentration of 10 μg/ml in PBS, this was then also subject to 1 in 10 dilutions. 20 μl of each dilution was added to 180 μl of 0.2 mg/ml DNA methyl green in a 96 well plate (done in triplicate). Absorbance readings were then taken after 3, 18, and 24 hours at 630 nm in an Anthos Lucy1 microplate luminometer. The dose dependency curves were created by plots of log10 concentration (mcg/ml) against mean absorbance (630 nm) in the statistical analysis program, GraphPad Prism™.

DNA methyl green [2] = test: DNA methyl green assay of ES and DNase activity in the presence of EDTA; format: biochemical; settings: 5.07 μg/ml ES, 3.78 μg/ml DNase
Experimental: 125 μl of 81.15 μg/ml ES was added to both 1875 μl DNA methyl green (0.2 mg/ml) and DNA methyl green containing 5 mM EDTA. Final concentrations are therefore 5.07 μg/ml ES and 4.7 mM EDTA. DNase was diluted to 121.1 μg/ml, diluted 1 in 2 and added to 1875 μl of DNA methyl green and DNA methyl green containing EDTA. The activity of STI treated ES was also assayed in the same way, in the presence of or in the absence of EDTA. These samples were then incubated in a water bath at 37° C. 100 μl samples were taken every 2 minutes (in triplicate) and added to 150 μl of 0.083M sodium citrate in a 96 well plate. The plates were left to stand overnight and the absorbance then read at 630 nm in an Anthos Lucy1 microplate luminometer.

## DNase
Bacterial genomic DNA; 5 mM EDTA
  degradation of bacterial genomic DNA in presence of EDTA: no DNase activity
Bacterial genomic DNA; untreated, no EDTA
  degradation of bacterial genomic DNA in absence of EDTA: no DNase activity
DNA methyl green [1]; absorbance reading at 3 hours
  EC50: 0.1921 µg/mL
DNA methyl green [1]; absorbance reading at 18 hours
  EC50: 0.0605 µg/mL
DNA methyl green [1]; absorbance reading at 24 hours
  EC50: 0.0571 µg/mL
DNA methyl green [1]; from EC50 values
  potency of DNase relative to ES: 3 times
DNA methyl green [2]; EDTA
  DNase activity in the presence of EDTA: activity almost abolished
DNA methyl green [2]; no EDTA
  DNase activity in the absence of EDTA: relatively similar activity
